Source: patent US20090118332A1, “Therapeutic Agents - 551” (AstraZeneca AB, priority 2006, published 2009)

Target: T1, human Fatty Acid Synthase (Homo sapiens, UniProt P49327)
T1 construct: made in house
Experiment: Human FAS enzyme assay (decrease in NADPH fluorescence)
Type: biochemical
Conditions: % inhibition at a concentration of 100 μmolar
In short: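 In-house human FAS was preincubated with compound and NADPH for 15 min at room temperature in 0.1 M Tris pH 7.5 with EDTA, glutathione and BSA. Malonyl CoA and acetyl CoA (500 μM and 150 μM in the added mix) were then added for 60 min. IC50 came from time-zero-subtracted NADPH fluorescence (340/460 nm).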

T1 sequence (P49327 whole entry): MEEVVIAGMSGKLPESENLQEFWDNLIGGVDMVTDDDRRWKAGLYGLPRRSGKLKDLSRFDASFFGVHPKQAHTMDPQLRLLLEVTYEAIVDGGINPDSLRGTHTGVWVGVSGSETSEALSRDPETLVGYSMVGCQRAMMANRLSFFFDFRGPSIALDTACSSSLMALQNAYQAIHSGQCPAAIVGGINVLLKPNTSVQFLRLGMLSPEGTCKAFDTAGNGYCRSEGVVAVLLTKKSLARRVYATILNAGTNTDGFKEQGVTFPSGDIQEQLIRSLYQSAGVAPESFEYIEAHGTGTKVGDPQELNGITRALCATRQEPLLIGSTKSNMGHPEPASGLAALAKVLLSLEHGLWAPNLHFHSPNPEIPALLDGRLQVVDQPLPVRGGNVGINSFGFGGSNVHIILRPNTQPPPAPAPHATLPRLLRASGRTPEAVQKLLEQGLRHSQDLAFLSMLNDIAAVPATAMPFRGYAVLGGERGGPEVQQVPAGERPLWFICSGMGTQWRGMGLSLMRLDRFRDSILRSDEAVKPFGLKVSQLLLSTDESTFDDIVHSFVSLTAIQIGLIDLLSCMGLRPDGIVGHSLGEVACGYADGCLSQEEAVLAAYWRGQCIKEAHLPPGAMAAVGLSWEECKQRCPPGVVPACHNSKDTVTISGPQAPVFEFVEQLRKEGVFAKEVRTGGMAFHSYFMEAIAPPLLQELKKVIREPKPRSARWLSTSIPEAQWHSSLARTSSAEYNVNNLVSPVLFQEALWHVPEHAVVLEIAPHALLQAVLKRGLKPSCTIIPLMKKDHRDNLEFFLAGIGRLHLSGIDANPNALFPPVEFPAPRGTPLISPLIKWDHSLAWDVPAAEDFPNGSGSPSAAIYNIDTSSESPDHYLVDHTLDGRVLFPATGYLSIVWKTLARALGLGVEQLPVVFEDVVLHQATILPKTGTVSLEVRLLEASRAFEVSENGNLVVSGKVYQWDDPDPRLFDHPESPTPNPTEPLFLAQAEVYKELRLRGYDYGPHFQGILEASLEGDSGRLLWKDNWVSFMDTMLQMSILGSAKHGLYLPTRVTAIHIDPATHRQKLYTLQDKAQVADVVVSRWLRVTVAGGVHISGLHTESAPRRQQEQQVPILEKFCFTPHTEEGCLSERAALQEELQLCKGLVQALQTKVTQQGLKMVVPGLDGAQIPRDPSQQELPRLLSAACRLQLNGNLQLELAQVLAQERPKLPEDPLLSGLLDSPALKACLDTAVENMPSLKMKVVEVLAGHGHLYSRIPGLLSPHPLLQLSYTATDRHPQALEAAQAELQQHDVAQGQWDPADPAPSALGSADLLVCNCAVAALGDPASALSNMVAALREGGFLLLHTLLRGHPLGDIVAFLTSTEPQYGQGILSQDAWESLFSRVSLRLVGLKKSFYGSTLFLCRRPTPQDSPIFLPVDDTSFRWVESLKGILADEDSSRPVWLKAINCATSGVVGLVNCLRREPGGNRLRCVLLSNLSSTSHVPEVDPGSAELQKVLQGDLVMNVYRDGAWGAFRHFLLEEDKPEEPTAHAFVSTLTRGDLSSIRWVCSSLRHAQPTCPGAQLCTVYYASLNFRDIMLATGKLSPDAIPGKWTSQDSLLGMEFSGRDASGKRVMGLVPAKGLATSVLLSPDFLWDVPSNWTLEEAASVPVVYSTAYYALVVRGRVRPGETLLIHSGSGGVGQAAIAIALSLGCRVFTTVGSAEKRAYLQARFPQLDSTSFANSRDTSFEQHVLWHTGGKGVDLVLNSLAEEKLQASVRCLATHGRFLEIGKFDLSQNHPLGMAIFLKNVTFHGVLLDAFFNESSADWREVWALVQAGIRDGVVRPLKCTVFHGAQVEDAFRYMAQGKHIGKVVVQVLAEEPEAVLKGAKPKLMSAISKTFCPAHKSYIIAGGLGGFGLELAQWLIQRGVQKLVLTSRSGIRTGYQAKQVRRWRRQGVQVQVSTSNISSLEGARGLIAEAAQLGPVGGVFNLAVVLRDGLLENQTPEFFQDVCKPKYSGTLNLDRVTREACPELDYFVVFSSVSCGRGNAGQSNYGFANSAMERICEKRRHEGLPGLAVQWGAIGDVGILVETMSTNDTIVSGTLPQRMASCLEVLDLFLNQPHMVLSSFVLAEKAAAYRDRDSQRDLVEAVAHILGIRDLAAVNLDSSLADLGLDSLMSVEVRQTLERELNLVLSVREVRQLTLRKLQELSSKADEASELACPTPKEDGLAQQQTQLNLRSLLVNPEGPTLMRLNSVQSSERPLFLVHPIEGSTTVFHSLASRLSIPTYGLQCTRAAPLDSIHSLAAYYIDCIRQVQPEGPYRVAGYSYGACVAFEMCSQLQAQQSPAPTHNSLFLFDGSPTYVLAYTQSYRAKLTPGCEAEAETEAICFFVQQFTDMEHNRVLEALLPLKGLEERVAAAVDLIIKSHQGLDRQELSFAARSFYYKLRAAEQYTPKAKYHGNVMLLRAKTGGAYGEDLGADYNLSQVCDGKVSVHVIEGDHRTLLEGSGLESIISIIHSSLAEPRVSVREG

SMILES | inhibition at 100 µM
Cc1ccc(C(=O)N2CCC(c3ccc(C#N)cc3)CC2)cc1NC(=O)N[C@@H](CC(C)C)C(N)=O [Example 73, (2S)-2-[[5-[4-(4-cyanophenyl)piperidine-1-carbonyl]-2-methyl-phenyl]carbamoylamino]-4-methyl-pentanamide] | 78.2%
Cc1ccc(C(=O)N2CCC(c3ccc(C#N)cc3)CC2)cc1NC(=O)NCCCN1CCCC1 [Example 74, 1-[5-[4-(4-cyanophenyl)piperidine-1-carbonyl]-2-methyl-phenyl]-3-(3-pyrrolidin-1-ylpropyl)urea] | 89.6%
Cc1ccc(C(=O)N2CCC(c3ccc(C#N)cc3)CC2)cc1NC(=O)NCc1ccc(-c2csnn2)cc1 [Example 75, 1-[5-[4-(4-cyanophenyl)piperidine-1-carbonyl]-2-methyl-phenyl]-3-[[4-(thiadiazol-4-yl)phenyl]methyl]urea] | 87.4%
Cc1cc(C)n(CCNC(=O)Nc2cc(C(=O)N3CCC(c4ccc(C#N)cc4)CC3)ccc2C)n1 [Example 76, 1-[5-[4-(4-cyanophenyl)piperidine-1-carbonyl]-2-methyl-phenyl]-3-[2-(3,5-dimethylpyrazol-1-yl)ethyl]urea] | 97.5%
Cc1ccc(C(=O)N2CCC(c3ccc(C#N)cc3)CC2)cc1NC(=O)NC1CCOC(C)(C)C1 (stereo not drawn) [Example 77, 1-[5-[4-(4-cyanophenyl)piperidine-1-carbonyl]-2-methyl-phenyl]-3-(2,2-dimethyloxan-4-yl)urea] | 89.6%
Cc1ccc(C(=O)N2CCC(c3ccc(C#N)cc3)CC2)cc1NC(=O)N[C@@H](COC(C)(C)C)C(N)=O [Example 78, (2S)-2-[[5-[4-(4-cyanophenyl)piperidine-1-carbonyl]-2-methyl-phenyl]carbamoylamino]-3-[(2-methylpropan-2-yl)oxy]propanamide] | 85.7%
CCCN1CCC(NC(=O)Nc2cc(C(=O)N3CCC(c4ccc(C#N)cc4)CC3)ccc2C)CC1 [Example 79, 3-[5-[4-(4-cyanophenyl)piperidine-1-carbonyl]-2-methyl-phenyl]-1-(1-propyl-4-piperidyl)urea] | 95.4%
Cc1ccc(C(=O)N2CCC(c3ccc(C#N)cc3)CC2)cc1NC(=O)NCC1CCS(=O)(=O)C1 (stereo not drawn) [Example 80, 1-[5-[4-(4-cyanophenyl)piperidine-1-carbonyl]-2-methyl-phenyl]-3-[(1,1-dioxothiolan-3-yl)methyl]urea] | 96.1%
Cc1ccc(C(=O)N2CCC(c3ccc(C#N)cc3)CC2)cc1NC(=O)NCCNC(=O)OCc1ccccc1 [Example 81, Benzyl N-[2-[[5-[4-(4-cyanophenyl)piperidine-1-carbonyl]-2-methyl-phenyl]carbamoylamino]ethyl]carbamate] | 88.2%
Cc1ccc(C(=O)N2CCC(c3ccc(C#N)cc3)CC2)cc1NC(=O)NCc1nnn[nH]1 [Example 82, 1-[5-[4-(4-cyanophenyl)piperidine-1-carbonyl]-2-methyl-phenyl]-3-(1H-tetrazol-5-ylmethyl)urea] | 82%
COc1ccccc1OCCNC(=O)Nc1cc(C(=O)N2CCC(c3ccc(C#N)cc3)CC2)ccc1C [Example 83, 1-[5-[4-(4-cyanophenyl)piperidine-1-carbonyl]-2-methyl-phenyl]-3-[2-(2-methoxyphenoxy)ethyl]urea] | 102%
COc1ccc([C@@H](C)NC(=O)Nc2cc(C(=O)N3CCC(c4ccc(C#N)cc4)CC3)ccc2C)cc1 [Example 84, 1-[5-[4-(4-cyanophenyl)piperidine-1-carbonyl]-2-methyl-phenyl]-3-[(1R)-1-(4-methoxyphenyl)ethyl]urea] | 92.3%
Cc1ccc(C(=O)N2CCC(c3ccc(C#N)cc3)CC2)cc1NC(=O)NCc1cccc(N)c1 [Example 85, 3-[(3-aminophenyl)methyl]-1-[5-[4-(4-cyanophenyl)piperidine-1-carbonyl]-2-methyl-phenyl]urea] | 93.6%
Cc1ccc(C(=O)N2CCC(c3ccc(C#N)cc3)CC2)cc1NC(=O)NCCNS(=O)(=O)c1ccccc1 [Example 86, 3-[2-(benzenesulfonamido)ethyl]-1-[5-[4-(4-cyanophenyl)piperidine-1-carbonyl]-2-methyl-phenyl]urea] | 94%
Cc1ccc(C(=O)N2CCC(c3ccc(C#N)cc3)CC2)cc1NC(=O)NCCNc1ccc([N+](=O)[O-])cc1 [Example 87, 1-[5-[4-(4-cyanophenyl)piperidine-1-carbonyl]-2-methyl-phenyl]-3-[2-[(4-nitrophenyl)amino]ethyl]urea] | 92.5%
Cc1ccc(C(=O)N2CCC(c3ccc(C#N)cc3)CC2)cc1NC(=O)NC(C)c1ccc(F)cc1 (stereo not drawn) [Example 88, 1-[5-[4-(4-cyanophenyl)piperidine-1-carbonyl]-2-methyl-phenyl]-3-[1-(4-fluorophenyl)ethyl]urea] | 87.6%
Cc1ccc(C(=O)N2CCC(c3ccc(C#N)cc3)CC2)cc1NC(=O)NCc1ccoc1 [Example 89, 1-[5-[4-(4-cyanophenyl)piperidine-1-carbonyl]-2-methyl-phenyl]-3-(3-furylmethyl)urea] | 93.1%

SMILES | inhibition at 100 µM
Cc1ccc(C(=O)N2CCC(c3ccc(C#N)cc3)CC2)cc1NC(=O)NCCO [Example 90, 1-[5-[4-(4-cyanophenyl)piperidine-1-carbonyl]-2-methyl-phenyl]-3-(2-hydroxyethyl)urea] | 93.6%
Cc1ccc(C(=O)N2CCC(c3ccc(C#N)cc3)CC2)cc1NC(=O)NCCNC(=O)c1ccccn1 [Example 91, N-[2-[[5-[4-(4-cyanophenyl)piperidine-1-carbonyl]-2-methyl-phenyl]carbamoylamino]ethyl]pyridine-2-carboxamide] | 95.9%
Cc1ccc(C(=O)N2CCC(c3ccc(C#N)cc3)CC2)cc1NC(=O)NCCNS(=O)(=O)N(C)C [Example 92, 1-[5-[4-(4-cyanophenyl)piperidine-1-carbonyl]-2-methyl-phenyl]-3-[2-(dimethylsulfamoylamino)ethyl]urea] | 102%
Cc1ccc(C(=O)N2CCC(c3ccc(C#N)cc3)CC2)cc1NC(=O)NC(C)(C)CNC(=O)c1cccnc1 [Example 93, N-[2-[[5-[4-(4-cyanophenyl)piperidine-1-carbonyl]-2-methyl-phenyl]carbamoylamino]-2-methyl-propyl]pyridine-3-carboxamide] | 90.1%
Cc1ccc(C(=O)N2CCC(c3ccc(C#N)cc3)CC2)cc1NC(=O)NCCNc1nc(N)nc(C)c1C [Example 94, 3-[2-[(2-amino-5,6-dimethyl-pyrimidin-4-yl)amino]ethyl]-1-[5-[4-(4-cyanophenyl)piperidine-1-carbonyl]-2-methyl-phenyl]urea] | 89.6%
Cc1ccc(C(=O)N2CCC(c3ccc(C#N)cc3)CC2)cc1NC(=O)NCCNc1ncnc2[nH]cnc12 [Example 95, 1-[5-[4-(4-cyanophenyl)piperidine-1-carbonyl]-2-methyl-phenyl]-3-[2-(9H-purin-6-ylamino)ethyl]urea] | 94.4%
CC(C)=CCNC(=O)Nc1cc(C(=O)N2CCC(c3ccc(C#N)cc3)CC2)ccc1C [Example 96, 1-[5-[4-(4-cyanophenyl)piperidine-1-carbonyl]-2-methyl-phenyl]-3-(3-methylbut-2-enyl)urea] | 103%
Cc1ccc(C(=O)N2CCC(c3ccc(C#N)cc3)CC2)cc1NC(=O)NC1CN(C(=O)OC(C)(C)C)C1 [Example 97, tert-butyl 3-[[5-[4-(4-cyanophenyl)piperidine-1-carbonyl]-2-methyl-phenyl]carbamoylamino]azetidine-1-carboxylate] | 95.5%
Cc1ccc(C(=O)N2CCC(c3ccc(C#N)cc3)CC2)cc1NC(=O)NC(C)c1ccc(S(C)(=O)=O)cc1 (stereo not drawn) [Example 98, 1-[5-[4-(4-cyanophenyl)piperidine-1-carbonyl]-2-methyl-phenyl]-3-[1-(4-methylsulfonylphenyl)ethyl]urea] | 91.9%
Cc1ccc(C(=O)N2CCC(c3ccc(C#N)cc3)CC2)cc1NC(=O)NC1Cc2ccncc2NC1=O (stereo not drawn) [Example 99, 1-[5-[4-(4-cyanophenyl)piperidine-1-carbonyl]-2-methyl-phenyl]-3-(2-oxo-3,4-dihydro-1H-1,7-naphthyridin-3-yl)urea] | 90.2%
Cc1ccc(C(=O)N2CCC(c3ccc(C#N)cc3)CC2)cc1NC(=O)NCCCN1CCCC(C)C1 (stereo not drawn) [Example 100, 1-[5-[4-(4-cyanophenyl)piperidine-1-carbonyl]-2-methyl-phenyl]-3-[3-(3-methyl-1-piperidyl)propyl]urea] | 77.8%
COc1ccc(NCCNC(=O)Nc2cc(C(=O)N3CCC(c4ccc(C#N)cc4)CC3)ccc2C)cc1 [Example 101, 1-[5-[4-(4-cyanophenyl)piperidine-1-carbonyl]-2-methyl-phenyl]-3-[2-[(4-methoxyphenyl)amino]ethyl]urea] | 90.7%
Cc1ccc(C(=O)N2CCC(c3ccc(C#N)cc3)CC2)cc1NC(=O)NCCNC(=O)OC(C)(C)C [Example 102, tert-butyl N-[2-[[5-[4-(4-cyanophenyl)piperidine-1-carbonyl]-2-methyl-phenyl]carbamoylamino]ethyl]carbamate] | 91.9%
Cc1ccc(C(=O)N2CCC(c3ccc(C#N)cc3)CC2)cc1NC(=O)NCCN [Example 103, 3-(2-aminoethyl)-1-[5-[4-(4-cyanophenyl)piperidine-1-carbonyl]-2-methyl-phenyl]urea] | 91.8%
Cc1ccc(C(=O)N2CCC(c3ccc(C#N)cc3)CC2)cc1NC(=O)NCCNC(=O)C(=O)O [Example 104, 2-[[5-[4-(4-cyanophenyl)piperidine-1-carbonyl]-2-methyl-phenyl]carbamoylamino]ethylcarbamoylformic acid] | 74.5%
Cc1ccc(C(=O)N2CCC(c3ccc(C#N)cc3)CC2)cc1NC(=O)NCCNC(=O)CC(=O)O [Example 104A, 2-[2-[[5-[4-(4-cyanophenyl)piperidine-1-carbonyl]-2-methyl-phenyl]carbamoylamino]ethylcarbamoyl]acetic acid] | 79%
